Measurements published in ChEMBL document CHEMBL1134198, “Structure-activity relationships of quinazoline derivatives: dual-acting compounds with inhibitory activities toward both TNF-alpha production and T cell proliferation” (Bioorg Med Chem Lett, 2001).

Assays:
[1] = Inhibitory concentration against TNF-alpha production from human peripheral blood mononuclear cells stimulated by LPS; assay type: functional
[2] = tested on: T-cell; assay: Inhibitory concentration against T cell proliferation using concanavalin A stimulated mice spleen cells; assay type: functional, cell-based; conditions: Mus musculus
[3] = Inhibitory concentration against growth of LPS stimulated human peripheral blood mononuclear cells; assay type: functional

Row | Compound | IC50 ([1]; Homo sapiens) | IC50 [1] | IC50 [2] | IC50 ([3]; Homo sapiens) | IC50 [3]
1 | Oc1ccc2ncnc(NCCc3ccc(Cl)cc3)c2c1 | > 30 µM | – | 1.4 µM | > 30 µM | –
2 | Clc1ccc(CCNc2ncnc3ccc(Cl)cc23)cc1 | > 30 µM | – | > 10 µM | > 30 µM | –
3 | CS(=O)(=O)N1CCN(c2cc3ncnc(NCCc4ccc(Cl)cc4)c3cc2[N+](=O)[O-])CC1 | > 30 µM | – | 4.3 µM | 4.5 µM | –
4 | O=[N+]([O-])c1cc2c(NCCc3ccc(Cl)cc3)ncnc2cc1N1CCOCC1 | 24.8 µM | – | 8.3 µM | 22.5 µM | –
5 | CN(C)c1cc2ncnc(NCCc3ccc(Cl)cc3)c2cc1[N+](=O)[O-] | 19.4 µM | – | 8.6 µM | 27.3 µM | –
6 | O=[N+]([O-])c1cc2c(NCCc3ccc(Cl)cc3)ncnc2cc1N1CCNCC1 | 0.8 µM | – | 1.1 µM | 12.1 µM | –
7 | Clc1ccc(CCNc2ncnc3cc(Cl)ccc23)cc1 | > 30 µM | – | > 10 µM | > 30 µM | –
8 | Clc1ccc(CCNc2ncnc3ccc(NCc4ccccc4)cc23)cc1 | > 30 µM | – | > 10 µM | > 30 µM | –
9 | Clc1ccc(CCNc2ncnc3ccc(Br)cc23)cc1 | > 30 µM | – | 4.8 µM | > 30 µM | –
10 | O=[N+]([O-])c1cc2c(NCCc3ccc(Cl)cc3)ncnc2cc1Cl | > 30 µM | – | > 10 µM | > 30 µM | –
11 | CCOc1cc2ncnc(NCCc3ccc(Cl)cc3)c2cc1[N+](=O)[O-] | > 30 µM | – | – | > 30 µM | –
12 | CN1CCN(c2cc3ncnc(NCCc4ccc(Cl)cc4)c3cc2[N+](=O)[O-])CC1 | 1.4 µM | – | 1.2 µM | 22.1 µM | –
13 | Fc1cc2ncnc(NCCc3ccc(Cl)cc3)c2cc1F | > 30 µM | – | – | > 30 µM | –
14 | Cc1nc(NCCc2ccc(Cl)cc2)c2ccccc2n1 | > 30 µM | – | 0.2 µM | > 30 µM | –
15 | COc1cc2ncnc(NCCc3ccc(Cl)cc3)c2cc1[N+](=O)[O-] | > 30 µM | – | – | > 30 µM | –
16 | Clc1ccc(CCNc2nc(Cl)nc3ccccc23)cc1 | > 30 µM | – | 1.2 µM | > 30 µM | –
17 | O=C(O)c1cc(/N=N/c2ccc(S(=O)(=O)Nc3ccccn3)cc2)ccc1O [SULFASALAZINE] | > 30 µM | – | > 10 µM | > 30 µM | –

Second part, led by results:

Row | IC50 ([1]; Homo sapiens) | IC50 [1] | Compound | IC50 [2] | IC50 ([3]; Homo sapiens) | IC50 [3]
18 | 14.6 µM | – | O=[N+]([O-])c1ccc2ncnc(NCCc3ccc(Cl)cc3)c2c1 | 3.2 µM | > 30 µM | –
19 | > 30 µM | – | O=[N+]([O-])c1ccc2c(NCCc3ccc(Cl)cc3)ncnc2c1 | 5.6 µM | > 30 µM | –
20 | > 30 µM | – | Clc1ccc(CCNc2ncnc3ccc(OCc4ccccc4)cc23)cc1 | > 10 µM | > 30 µM | –
21 | > 30 µM | – | Nc1ccc2ncnc(NCCc3ccc(Cl)cc3)c2c1 | 2.6 µM | > 30 µM | –
22 | > 30 µM | – | CNc1ccc2ncnc(NCCc3ccc(Cl)cc3)c2c1 | > 10 µM | > 30 µM | –
23 | > 30 µM | – | O=CNc1ccc2ncnc(NCCc3ccc(Cl)cc3)c2c1 | > 10 µM | > 30 µM | –
24 | > 30 µM | – | COc1nc(NCCc2ccc(Cl)cc2)c2ccccc2n1 | > 10 µM | > 30 µM | –
25 | > 30 µM | – | Nc1ccc2c(NCCc3ccc(Cl)cc3)ncnc2c1 | 3.4 µM | > 30 µM | –
26 | > 30 µM | – | Clc1ccc(CCNc2ncnc3ccccc23)cc1 | 0.5 µM | > 30 µM | –
27 | > 30 µM | – | O=[N+]([O-])c1cc2c(NCCc3ccc(Cl)cc3)ncnc2cc1N1CCN(c2ccccc2)CC1 | > 10 µM | > 30 µM | –
28 | > 30 µM | – | O=[N+]([O-])c1cc2c(NCCc3ccc(Cl)cc3)ncnc2cc1N1CCN(c2ccccn2)CC1 | > 10 µM | > 30 µM | –
29 | > 30 µM | – | CCNc1cc2ncnc(NCCc3ccc(Cl)cc3)c2cc1[N+](=O)[O-] | > 10 µM | > 30 µM | –
30 | 2.1 µM | – | O=[N+]([O-])c1cc2c(NCCc3ccc(Cl)cc3)ncnc2cc1N1CCCNCC1 | 0.9 µM | 9.8 µM | –
31 | > 30 µM | – | O=[N+]([O-])c1cc2c(NCCc3ccc(Cl)cc3)ncnc2cc1N1CCCCC1 | > 10 µM | > 30 µM | –
32 | > 30 µM | – | COc1cc2ncnc(NCCc3ccc(Cl)cc3)c2cc1OC | 1.4 µM | > 30 µM | –
33 | > 30 µM | – | Clc1ccc(CCNc2nc(-c3ccccc3)nc3ccccc23)cc1 | > 10 µM | > 30 µM | –
34 | > 30 µM | – | Cc1ccc2ncnc(NCCc3ccc(Cl)cc3)c2c1 | 0.8 µM | > 30 µM | –
35 | 0.01 µM | – | C[C@@H]1C[C@H]2[C@@H]3CCC4=CC(=O)C=C[C@]4(C)[C@@]3(F)[C@@H](O)C[C@]2(C)[C@@]1(O)C(=O)CO [DEXAMETHASONE] | 0.005 µM | 0.04 µM | –
36 | > 30 µM | – | CC(C)(S)[C@@H](N)C(=O)O [PENICILLAMINE] | – | > 30 µM | –
37 | 0.5 µM | – | COc1ccc(C2CNC(=O)C2)cc1OC1CCCC1 (centres undefined) [ROLIPRAM] | > 10 µM | > 30 µM | –
38 | – | > 30 µM | AURANOFIN | – | – | > 30 µM
